Measurements published in patent US8357694B2, “Substituted 5,6-dihydro-6-phenylbenzo[F]isoquinolin-2-amine compounds” (ArQule, Inc., priority 2008, dated 2013).

How the values were obtained:
Assay type in all cases: cell-based
KATO III = test: MTS assay, KATO III
Experimental: (§1) Cells were maintained at 37° C., 5% CO2 in DMEM media supplemented with 1% fetal bovine serum, penicillin/streptomycin and fungizone (Invitrogen). Cells were seeded into 96-well tissue culture plates at 3000 per well and cultured at 37° C. for 18 hours. Test compounds were dissolved and diluted to 300× in DMSO then diluted 1:40 in DMEM.

DLD-1 = test: MTS cell kill, DLD-1
Experimental: as §1

MDA-MB-231 = test: MTS cell kill, MDA-MB-231
Experimental: as §1

NCI-H1299 = test: MTS cell kill, NCI-H1299
Experimental: as §1

PACA-2 = test: MTS cell kill, PACA-2
Experimental: as §1

PC-3 = test: MTS cell kill, PC-3
Experimental: as §1
Also: test concentration or dose not given here.

Compound | MTS cell kill data (% inhibition) KATO III (KATO III) | MTS cell kill data (% inhibition) DLD-1 (DLD-1) | MTS cell kill data (% inhibition) MDA-MB-231 (MDA-MB-231) | MTS cell kill data (% inhibition) NCI-H1299 (NCI-H1299) | MTS cell kill data (% inhibition) PACA-2 (PACA-2) | MTS cell kill data (% inhibition) PC-3 (PC-3)
COCC(=O)Nc1ccc(C2Cc3cnc(NCCCCN(C)C)nc3-c3ccccc32)cc1 (stereo not drawn) [Example 471, N-[4-(2-{[4-(dimethylamino)butyl]amino}-5,6-dihydrobenzo[h]quinazolin-6-yl)phenyl]-2-methoxyacetamide] | A (A = 80-100% inhibition) | A (A = 80-100% inhibition) | A (A = 80-100% inhibition) | A (A = 80-100% inhibition) | A (A = 80-100% inhibition) | C (C = <50% inhibition)
CN(C)CCCCNc1ncc2c(n1)-c1ccccc1C(c1ccc(NS(=O)(=O)c3ccc(C(C)(C)C)cc3)cc1)C2 (stereo not drawn) [Example 435, 4-tert-butyl-N-[4-(2-{[4-(dimethylamino)butyl]amino}-5,6-dihydrobenzo[h]quinazolin-6-yl)phenyl]benzenesulfonamide] | A (A = 80-100% inhibition) | A (A = 80-100% inhibition) | A (A = 80-100% inhibition) | A (A = 80-100% inhibition) | A (A = 80-100% inhibition) | A (A = 80-100% inhibition)
CCCc1ccc(C(=O)Nc2ccc(C3Cc4cnc(NCCCCN(C)C)nc4-c4ccccc43)cc2)cc1 (stereo not drawn) [Example 470, N-[4-(2-{[4-(dimethylamino)butyl]amino}-5,6-dihydrobenzo[h]quinazolin-6-yl)phenyl]-4-propylbenzamide] | A (A = 80-100% inhibition) | A (A = 80-100% inhibition) | A (A = 80-100% inhibition) | A (A = 80-100% inhibition) | A (A = 80-100% inhibition) | A (A = 80-100% inhibition)
CN(C)CCCCNc1ncc2c(n1)-c1ccccc1C(c1ccc(NC(=O)c3ccccc3Br)cc1)C2 (stereo not drawn) [Example 466, 2-bromo-N-[4-(2-{[4-(dimethylamino)butyl]amino}-5,6-dihydrobenzo[h]quinazolin-6-yl)phenyl]benzamide] | A (A = 80-100% inhibition) | A (A = 80-100% inhibition) | B (B = 50-79% inhibition) | A (A = 80-100% inhibition) | A (A = 80-100% inhibition) | B (B = 50-79% inhibition)
Cc1ccc(S(=O)(=O)Nc2ccc(C3Cc4cnc(NCCCCN(C)C)nc4-c4ccccc43)cc2)c(C)c1 (stereo not drawn) [Example 423, N-[4-(2-{[4-(dimethylamino)butyl]amino}-5,6-dihydrobenzo[h]quinazolin-6-yl)phenyl]-2,4-dimethylbenzenesulfonamide] | A (A = 80-100% inhibition) | A (A = 80-100% inhibition) | A (A = 80-100% inhibition) | A (A = 80-100% inhibition) | A (A = 80-100% inhibition) | A (A = 80-100% inhibition)
CN(C)CCCCNc1ncc2c(n1)-c1ccccc1C(c1ccc(NS(=O)(=O)c3ccc(Br)s3)cc1)C2 (stereo not drawn) [Example 427, 5-bromo-N-[4-(2-{[4-(dimethylamino)butyl]amino}-5,6-dihydrobenzo[h]quinazolin-6-yl)phenyl]thiophene-2-sulfonamide] | A (A = 80-100% inhibition) | A (A = 80-100% inhibition) | A (A = 80-100% inhibition) | A (A = 80-100% inhibition) | A (A = 80-100% inhibition) | B (B = 50-79% inhibition)
COc1ccc(OC)c(CC(=O)Nc2ccc(C3Cc4cnc(NCCCCN(C)C)nc4-c4ccccc43)cc2)c1 (stereo not drawn) [Example 473] | A (A = 80-100% inhibition) | A (A = 80-100% inhibition) | A (A = 80-100% inhibition) | A (A = 80-100% inhibition) | A (A = 80-100% inhibition) | A (A = 80-100% inhibition)
Cc1cccc(Cl)c1S(=O)(=O)Nc1ccc(C2Cc3cnc(NCCCCN(C)C)nc3-c3ccccc32)cc1 (stereo not drawn) [Example 431, 2-chloro-N-[4-(2-{[4-(dimethylamino)butyl]amino}-5,6-dihydrobenzo[h]quinazolin-6-yl)phenyl]-6-methylbenzenesulfonamide] | A (A = 80-100% inhibition) | A (A = 80-100% inhibition) | A (A = 80-100% inhibition) | A (A = 80-100% inhibition) | A (A = 80-100% inhibition) | B (B = 50-79% inhibition)
Cc1cccc(C(=O)Nc2ccc(C3Cc4cnc(NCCCCN(C)C)nc4-c4ccccc43)cc2)c1 (stereo not drawn) [Example 469, N-[4-(2-{[4-(dimethylamino)butyl]amino}-5,6-dihydrobenzo[h]quinazolin-6-yl)phenyl]-3-methylbenzamide] | A (A = 80-100% inhibition) | A (A = 80-100% inhibition) | A (A = 80-100% inhibition) | A (A = 80-100% inhibition) | A (A = 80-100% inhibition) | A (A = 80-100% inhibition)
CN(C)CCCCNc1ncc2c(n1)-c1ccccc1C(c1ccc(NS(=O)(=O)c3cccc4cccnc34)cc1)C2 (stereo not drawn) [Example 434, N-[4-(2-{[4-(dimethylamino)butyl]amino}-5,6-dihydrobenzo[h]quinazolin-6-yl)phenyl]quinoline-8-sulfonamide] | A (A = 80-100% inhibition) | A (A = 80-100% inhibition) | A (A = 80-100% inhibition) | A (A = 80-100% inhibition) | A (A = 80-100% inhibition) | A (A = 80-100% inhibition)
CN(C)CCCCNc1ncc2c(n1)-c1ccccc1C(c1ccc(NS(=O)(=O)c3cccc(C(F)(F)F)c3)cc1)C2 (stereo not drawn) [Example 430, N-[4-(2-{[4-(dimethylamino)butyl]amino}-5,6-dihydrobenzo[h]quinazolin-6-yl)phenyl]-3-(trifluoromethyl)benzenesulfonamide] | A (A = 80-100% inhibition) | A (A = 80-100% inhibition) | A (A = 80-100% inhibition) | A (A = 80-100% inhibition) | A (A = 80-100% inhibition) | A (A = 80-100% inhibition)
COc1ccc(C(=O)Nc2ccc(C3Cc4cnc(NCCCCN(C)C)nc4-c4ccccc43)cc2)cc1F (stereo not drawn) [Example 474, N-[4-(2-{[4-(dimethylamino)butyl]amino}-5,6-dihydrobenzo[h]quinazolin-6-yl)phenyl]-3-fluoro-4-methoxybenzamide] | A (A = 80-100% inhibition) | A (A = 80-100% inhibition) | B (B = 50-79% inhibition) | A (A = 80-100% inhibition) | A (A = 80-100% inhibition) | A (A = 80-100% inhibition)
Cc1ccc(S(=O)(=O)Nc2ccc(C3Cc4cnc(NCCCCN(C)C)nc4-c4ccccc43)cc2)cc1 (stereo not drawn) [Example 420, N-[4-(2-{[4-(dimethylamino)butyl]amino}-5,6-dihydrobenzo[h]quinazolin-6-yl)phenyl]-4-methylbenzenesulfonamide] | A (A = 80-100% inhibition) | A (A = 80-100% inhibition) | A (A = 80-100% inhibition) | A (A = 80-100% inhibition) | A (A = 80-100% inhibition) | A (A = 80-100% inhibition)
